Measured values from patent US9090628B2, “Benzoxazepin compounds selective for PI3K P110 delta and methods of use” (GENENTECH, INC., priority 2011, dated 2015).

Experiments:
[1] = test system: CD69 production by B lymphocytes in human whole blood activated with anti-human IgM; experiment: CD69 Whole Blood Assay; format: cell-based; settings: Lymphocyte, anti-IgM stimulated, CD69 positive of CD20 positive cells
Source text: There is good evidence that B-cells play a key role in the pathogenesis of autoimmune and/or inflammatory disease. Protein-based therapeutics that deplete B cells such as Rituxan are effective against autoantibody-driven inflammatory diseases such as rheumatoid arthritis (Rastetter et al. (2004) Annu Rev Med 55:477). CD69 is the early activation marker in leukocytes including T cells, thymocytes, B cells, NK cells, neutrophils, and eosinophils. The CD69 human whole blood assay (Example 903) determines the ability of compounds to inhibit the production of CD69 by B lymphocytes in human whole blood activated by crosslinking surface IgM with goat F(ab′)2 anti-human IgM.
Human blood is obtained from healthy volunteers, with the following restrictions: 1 week drug-free, non-smokers. Blood (approximately 20 mls to test 8 compounds) is collected by venipuncture into Vacutainer tubes with sodium heparin.
Solutions of Formula I compounds at 1000 or 2000 μM in PBS (20×), are diluted by three-fold serial dilutions in 10% DMSO in PBS for a nine point dose-response curve. An aliquot of 5.5 μl of each compound is added in duplicate to a 2 ml 96-well plate; 5.5 μl of 10% DMSO in PBS is added as control and no-stimulus wells. Human whole blood—HWB (100 μl) is added to each well. After mixing the plates are incubated at 37° C., 5% CO2, 100% humidity for 30 minutes. Goat F(ab′)2 anti-human IgM (10 μl of a 500 μg/ml solution, 50 μg/ml final) is added to each well (except the no-stimulus wells) with mixing and the plates are incubated for an additional 20 hours. At the end of the 20 hour incubation, samples are incubated with fluorescent labeled antibodies for 30 minutes, at 37° C., 5% CO2, 100% humidity. Include induced control, unstained and single stains for compensation adjustments and initial voltage settings. Samples are then lysed with Pharmingen Lyse according to the manufacturer's instructions. Samples are then transferred to a 96 well plate suitable to be run on the AMS 96 well system on the BD Calibur FACs machine. Data acquired and Mean Fluorescence Intensity values were obtained using Cell Quest Software. Results are initially analyzed by FACS analysis software (Flow Jo).

p110 alpha = p110 alpha (Homo sapiens (Human), UniProt P42336); experiment: PI3K isoform inhibition assay, p110 alpha (for alpha/delta selectivity); settings: ratio of biochemical IC50 values
Procedure, shortened: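 Fluorescence polarization displacement of a fluorescent PIP3 probe from GRP-1 detector by PI3K-formed PIP3; p110α/p85α at 40 ng/mL with 10 μM PIP2 substrate.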

p110 delta = p110 delta (Homo sapiens (Human), UniProt O00329); experiment: PI3K isoform inhibition assay, p110 delta (fluorescence polarization displacement); format: biochemical
Chain of p110 delta (O00329 whole entry, canonical isoform): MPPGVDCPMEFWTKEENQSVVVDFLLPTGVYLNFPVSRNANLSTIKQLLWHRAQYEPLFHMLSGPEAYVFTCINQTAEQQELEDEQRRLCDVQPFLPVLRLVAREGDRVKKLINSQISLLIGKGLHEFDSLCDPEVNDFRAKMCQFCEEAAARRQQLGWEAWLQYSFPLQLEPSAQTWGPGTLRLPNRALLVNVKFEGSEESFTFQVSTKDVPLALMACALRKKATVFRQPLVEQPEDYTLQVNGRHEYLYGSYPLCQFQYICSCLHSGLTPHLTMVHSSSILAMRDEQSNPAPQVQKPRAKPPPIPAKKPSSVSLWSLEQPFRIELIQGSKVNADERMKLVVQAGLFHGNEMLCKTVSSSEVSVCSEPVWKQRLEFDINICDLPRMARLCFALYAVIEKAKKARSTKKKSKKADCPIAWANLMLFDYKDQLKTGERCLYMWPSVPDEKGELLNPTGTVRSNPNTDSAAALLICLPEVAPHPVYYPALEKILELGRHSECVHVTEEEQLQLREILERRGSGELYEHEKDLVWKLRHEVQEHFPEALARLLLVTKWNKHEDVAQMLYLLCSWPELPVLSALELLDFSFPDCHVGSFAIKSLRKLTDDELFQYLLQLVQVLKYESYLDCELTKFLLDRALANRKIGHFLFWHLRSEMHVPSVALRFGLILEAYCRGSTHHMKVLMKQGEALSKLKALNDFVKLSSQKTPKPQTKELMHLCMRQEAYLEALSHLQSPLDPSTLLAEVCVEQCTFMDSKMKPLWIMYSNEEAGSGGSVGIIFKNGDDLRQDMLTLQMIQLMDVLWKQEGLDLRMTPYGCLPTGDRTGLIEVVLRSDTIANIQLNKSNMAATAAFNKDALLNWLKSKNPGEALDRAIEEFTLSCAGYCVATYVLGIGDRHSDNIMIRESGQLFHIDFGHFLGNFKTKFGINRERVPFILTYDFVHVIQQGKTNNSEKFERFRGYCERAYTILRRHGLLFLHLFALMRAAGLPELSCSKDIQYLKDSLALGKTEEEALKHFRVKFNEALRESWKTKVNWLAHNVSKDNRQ
Chain of p110 delta (P27986 whole entry partner, canonical isoform): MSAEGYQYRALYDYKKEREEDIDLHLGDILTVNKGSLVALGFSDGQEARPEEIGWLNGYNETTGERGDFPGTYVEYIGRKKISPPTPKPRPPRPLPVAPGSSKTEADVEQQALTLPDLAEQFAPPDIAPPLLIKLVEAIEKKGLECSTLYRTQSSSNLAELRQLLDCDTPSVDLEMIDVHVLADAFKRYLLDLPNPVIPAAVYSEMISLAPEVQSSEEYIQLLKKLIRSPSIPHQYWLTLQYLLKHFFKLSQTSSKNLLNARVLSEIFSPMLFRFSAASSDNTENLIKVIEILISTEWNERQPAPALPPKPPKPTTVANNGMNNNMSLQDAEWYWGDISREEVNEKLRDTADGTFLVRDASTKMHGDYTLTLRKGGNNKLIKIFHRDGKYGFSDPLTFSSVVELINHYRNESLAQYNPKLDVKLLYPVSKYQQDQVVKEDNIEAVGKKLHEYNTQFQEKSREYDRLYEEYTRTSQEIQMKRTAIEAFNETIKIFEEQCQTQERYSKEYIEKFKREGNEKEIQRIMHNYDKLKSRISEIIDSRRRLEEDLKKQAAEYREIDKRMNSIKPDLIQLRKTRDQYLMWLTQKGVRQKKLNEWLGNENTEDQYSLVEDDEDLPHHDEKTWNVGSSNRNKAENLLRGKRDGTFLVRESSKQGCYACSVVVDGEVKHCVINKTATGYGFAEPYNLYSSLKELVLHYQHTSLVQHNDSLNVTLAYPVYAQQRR

Chain of p110 alpha (P42336 whole entry, canonical isoform): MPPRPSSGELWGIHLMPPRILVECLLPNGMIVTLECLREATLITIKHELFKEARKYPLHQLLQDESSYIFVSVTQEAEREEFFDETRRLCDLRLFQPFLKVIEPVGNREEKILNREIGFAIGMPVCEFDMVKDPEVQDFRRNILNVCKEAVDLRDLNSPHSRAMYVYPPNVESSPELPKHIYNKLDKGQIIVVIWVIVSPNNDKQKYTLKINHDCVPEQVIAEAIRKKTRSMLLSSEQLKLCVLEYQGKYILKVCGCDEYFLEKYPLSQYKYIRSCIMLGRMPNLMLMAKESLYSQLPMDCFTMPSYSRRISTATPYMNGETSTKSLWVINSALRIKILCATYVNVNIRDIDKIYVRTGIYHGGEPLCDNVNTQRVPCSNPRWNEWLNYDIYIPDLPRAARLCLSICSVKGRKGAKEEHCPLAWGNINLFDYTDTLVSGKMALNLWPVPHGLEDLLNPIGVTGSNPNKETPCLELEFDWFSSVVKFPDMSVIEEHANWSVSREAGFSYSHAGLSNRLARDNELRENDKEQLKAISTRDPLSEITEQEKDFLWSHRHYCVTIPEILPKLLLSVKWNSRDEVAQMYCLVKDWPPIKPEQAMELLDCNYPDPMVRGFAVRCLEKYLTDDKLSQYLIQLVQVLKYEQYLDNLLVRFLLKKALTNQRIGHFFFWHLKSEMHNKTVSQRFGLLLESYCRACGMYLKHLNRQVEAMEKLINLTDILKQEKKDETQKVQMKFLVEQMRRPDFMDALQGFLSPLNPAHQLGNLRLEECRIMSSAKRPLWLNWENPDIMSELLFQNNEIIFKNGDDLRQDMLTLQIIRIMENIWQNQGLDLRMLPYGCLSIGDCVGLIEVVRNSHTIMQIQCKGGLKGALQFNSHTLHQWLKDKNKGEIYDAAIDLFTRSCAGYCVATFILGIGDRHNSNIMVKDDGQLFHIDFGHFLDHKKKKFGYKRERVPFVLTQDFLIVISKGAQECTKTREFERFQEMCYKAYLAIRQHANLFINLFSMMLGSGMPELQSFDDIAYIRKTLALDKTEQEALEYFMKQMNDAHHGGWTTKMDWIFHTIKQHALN
Chain of p110 alpha (P27986 whole entry partner, canonical isoform): as the sequence (P27986 whole entry partner, canonical isoform) above

| IC50 [1] [nM] | IC50 p110 alpha/IC50 p110 delta (p110 alpha) | IC50 (p110 delta) [nM] | Structure (SMILES) |
| --- | --- | --- | --- |
| 49.7 | – | – | Cc1nc(-c2cn3c(n2)-c2ccc(-c4cnn(C)c4C4CCCN(C(C)(C)CO)C4)cc2OCC3)n(C(C)C)n1 (stereo not drawn) [Example 248, 2-(3-(4-(2-(1-isopropyl-3-methyl-1H-1,2,4-triazol-5-yl)-5,6-dihydrobenzo[f]imidazo[1,2-d][1,4]oxazepin-9-yl)-1-methyl-1H-pyrazol-5-yl)piperidin-1-yl)-2-methylpropan-1-ol] |
| 58.2 | 14.4 | 0.442 | CC(Oc1ccc2c(c1)OCCn1cc(-c3ncnn3C(C)C)nc1-2)C1CCN(C(C)C)CC1 (stereo not drawn) [Example 143, 2-(1-isopropyl-1H-1,2,4-triazol-5-yl)-9-(1-(1-isopropylpiperidin-4-yl)ethoxy)-5,6-dihydrobenzo[f]imidazo[1,2-d][1,4]oxazepine] |
| 45.9 | – | – | CC(C)n1ncnc1-c1cn2c(n1)-c1ccc(-c3ccnn3C3CCN(C)CC3)cc1OCC2 [Example 160, 2-(1-isopropyl-1H-1,2,4-triazol-5-yl)-9-(1-(1-methylpiperidin-4-yl)-1H-pyrazol-5-yl)-5,6-dihydrobenzo[f]imidazo[1,2-d][1,4]oxazepine] |
| 38.1 | – | – | CC(C)n1ncnc1-c1cn2c(n1)-c1cnc(N3CCCC3C3CCN(C)CC3)cc1OCC2 (stereo not drawn) [Example 115, 2-(1-isopropyl-1H-1,2,4-triazol-5-yl)-9-(2-(1-methylpiperidin-4-yl)pyrrolidin-1-yl)-5,6-dihydroimidazo[1,2-d]pyrido[3,4-f][1,4]oxazepine] |
| 45.8 | – | – | Cc1nc(-c2cn3c(n2)-c2ccc(N4CCC[C@@H]4C4CCN(C(C)C)CC4)cc2OCC3)n(C(C)C)n1 [Example 263, (R)-2-(1-isopropyl-3-methyl-1H-1,2,4-triazol-5-yl)-9-(2-(1-isopropylpiperidin-4-yl)pyrrolidin-1-yl)-5,6-dihydrobenzo[f]imidazo[1,2-d][1,4]oxazepine] |
| – | 27.2 | 2.37 | CCN(CC)C1CCOC(c2c(-c3ccc4c(c3)OCCn3cc(-c5nc(C)nn5C(C)C)nc3-4)cnn2C)C1 (stereo not drawn) [Example 333, N,N-diethyl-2-[4-[2-(2-isopropyl-5-methyl-1,2,4-triazol-3-yl)-5,6-dihydroimidazo[1,2-d][1,4]benzoxazepin-9-yl]-2-methyl-pyrazol-3-yl]tetrahydropyran-4-amine] |
| – | 10.3 | 1.47 | Cc1nc(-c2cn3c(n2)-c2ccc(N4CCC4C4CCN(C(C)C)CC4)cc2OCC3)n(C(C)C)n1 (stereo not drawn) [Example 293, 2-(2-isopropyl-5-methyl-1,2,4-triazol-3-yl)-9-[2-(1-isopropyl-4-piperidyl)azetidin-1-yl]-5,6-dihydroimidazo[1,2-d][1,4]benzoxazepine] |
| – | 15 | 139 | Cc1nc(-c2cn3c(n2)-c2ccc(N4CCCC4C4CCCCN4C)cc2OCC3)n(C(C)C)n1 (stereo not drawn) [Example 324, 2-(2-isopropyl-5-methyl-1,2,4-triazol-3-yl)-9-[2-(1-methyl-2-piperidyl)pyrrolidin-1-yl]-5,6-dihydroimidazo[1,2-d][1,4]benzoxazepine] |
| – | 27 | 26.8 | Cc1nc(-c2cn3c(n2)-c2cc([C@H](C)N4CCN(CC(C)(C)O)CC4)c(F)cc2OCC3)n(C(C)C)n1 [Example 336, (S)-1-(4-(1-(9-fluoro-2-(1-isopropyl-3-methyl-1H-1,2,4-triazol-5-yl)-5,6-dihydrobenzo[f]imidazo[1,2-d][1,4]oxazepin-10-yl)ethyl)piperazin-1-yl)-2-methylpropan-2-ol] |

| Structure (SMILES) | IC50 [1] [nM] | IC50 p110 alpha/IC50 p110 delta (p110 alpha) | IC50 (p110 delta) [nM] |
| --- | --- | --- | --- |
| CC(C)n1ncnc1-c1cn2c(n1)-c1cc(CN3CCN(C(C)(C)C)CC3)ccc1OCC2 [Example 108, 10-((4-tert-butylpiperazin-1-yl)methyl)-2-(1-isopropyl-1H-1,2,4-triazol-5-yl)-5,6-dihydrobenzo[f]imidazo[1,2-d][1,4]oxazepine] | 40.5 | 21.8 | 2.46 |
| CC(C)n1ncnc1-c1cn2c(n1)-c1cc(C(=O)N3CCN(C(C)(C)C)CC3)ccc1OCC2 [Example 110, (4-tert-butylpiperazin-1-yl)(2-(1-isopropyl-1H-1,2,4-triazol-5-yl)-5,6-dihydrobenzo[f]imidazo[1,2-d][1,4]oxazepin-10-yl)methanone] | 129 | 27.1 | 0.919 |
